Measured values from patent US12655116B2, “Substituted isophthalic acid diamides” (Bayer Aktiengesellschaft, priority 2020, dated 2026).

Assays:
HORMU [1] = experiment: Post-emergence herbicidal action against HORMU; format: in vivo, Hordeum murinum; details: dosage 20 g/ha
Method: Seeds of monocotyledonous and dicotyledonous weed and crop plants are laid out in sandy loam soil in wood-fiber pots, covered with soil and cultivated in a greenhouse under good growth conditions. 2 to 3 weeks after sowing, the test plants are treated at the one-leaf stage. The compounds of the invention, formulated in the form of wettable powders (WP) or as emulsion concentrates (EC), are then sprayed onto the green parts of the plants in the form of an aqueous suspension or emulsion at a water application rate equivalent to 600 to 800 l/ha, with addition of 0.2% wetting agent. After the test plants have been left to stand in the greenhouse under optimal growth conditions for about 3 weeks, the action of the preparations is assessed visually in comparison to untreated controls (herbicidal action in percent (%): 100% activity=the plants have died, 0% activity=like control plants). […] The tables below illustrate, in an illustrative manner, the post-emergence herbicidal action of the compounds of the invention, the herbicidal activity being stated in percent.

STEME [2] = experiment: Post-emergence herbicidal action against STEME; format: in vivo, Stellaria media
Method in brief: (§1)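 Spray, one-leaf stage: WP or EC compound in water, 600–800 l/ha, 0.2% wetting agent. Plants held about 3 weeks in the greenhouse, then visually rated in percent of kill compared with untreated controls.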

HORMU [3] = experiment: Pre-emergence herbicidal action against HORMU; format: in vivo, Hordeum murinum; details: 80 g/ha, pre-emergence
Method in brief: (§2)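 Pre-emergence soil-surface spray of formulated compound (WP or EC; 600 to 800 l/ha; 0.2% wetting agent) over seeds sown in sandy loam. After 3 weeks under greenhouse conditions, damage is estimated visually in percent against untreated plants.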

DIGSA [4] = experiment: Pre-emergence herbicidal action against DIGSA; format: in vivo, Digitaria sanguinalis
Method in brief: as §2

ECHCG [5] = experiment: Pre-emergence herbicidal action against ECHCG; format: in vivo, Echinochloa crus-galli
Method in brief: as §2

LOLRI = experiment: Pre-emergence herbicidal action against LOLRI; format: in vivo, Lolium rigidum; details: 80 g/ha
Method in brief: as §2

ECHCG [6] = experiment: Post-emergence herbicidal action against ECHCG; format: in vivo, Echinochloa crus-galli
Method in brief: as §1

VERPE [7] = experiment: Post-emergence herbicidal action against VERPE; format: in vivo, Veronica persica
Method in brief: as §1

AVEFA [8] = experiment: Pre-emergence herbicidal action against AVEFA; format: in vivo, Avena fatua; details: 80 g/ha, pre-emergence
Method in brief: as §2

PHBPU [9] = experiment: Pre-emergence herbicidal action against PHBPU; format: in vivo, Pharbitis purpurea; details: dosage 80 g/ha
Method in brief: as §2

ABUTH [10] = experiment: Post-emergence herbicidal action against ABUTH; format: in vivo, Abutilon theophrasti; details: visual assessment about 3 weeks after treatment vs untreated controls
Method in brief: as §1

AMARE [11] = experiment: Pre-emergence herbicidal action against AMARE; format: in vivo, Amaranthus retroflexus
Method in brief: as §2

VIOTR [12] = experiment: Post-emergence herbicidal action against VIOTR; format: in vivo, Viola tricolor
Method in brief: as §1

ABUTH [13] = experiment: Pre-emergence herbicidal action against ABUTH; format: in vivo, Abutilon theophrasti; details: for Pre-emergence action against ABUTH (herbicidal activity): 80 g/ha, scored visually after 3 weeks vs untreated controls (100% = plants have died, 0% = like control plants); for Pre-emergence action against ABUTH (herbicidal activity in percent): dosage 20 g/ha, scored visually after 3 weeks vs untreated controls, 100% = plants have died, 0% = like control plants
Method in brief: as §2

POLCO = experiment: Pre-emergence herbicidal action against POLCO; format: in vivo, Polygonum convolvulus; details: dosage 80 g/ha
Method in brief: as §2

SETVI [14] = experiment: Pre-emergence herbicidal action against SETVI; format: in vivo, Setaria viridis; details: dosage 80 g/ha
Method in brief: as §2

ALOMY [15] = experiment: Pre-emergence herbicidal action against ALOMY; format: in vivo, Alopecurus myosuroides; details: 80 g/ha, pre-emergence, scored visually after 3 weeks vs untreated controls (100% = plants have died, 0% = like control plants)
Method in brief: as §2

AMARE [16] = experiment: Post-emergence herbicidal action against AMARE; format: in vivo, Amaranthus retroflexus; details: 20 g/ha, visual assessment about 3 weeks after treatment, 100% = plants have died, 0% = like control plants
Method in brief: as §1

VIOTR [17] = experiment: Pre-emergence herbicidal action against VIOTR; format: in vivo, Viola tricolor
Method in brief: as §2

MATIN [18] = experiment: Pre-emergence herbicidal action against MATIN; format: in vivo, Matricaria inodora
Method in brief: as §2

MATIN [19] = experiment: Post-emergence herbicidal action against MATIN; format: in vivo, Matricaria inodora
Method in brief: as §1

VERPE [20] = experiment: Pre-emergence herbicidal action against VERPE; format: in vivo, Veronica persica; details: dosage 80 g/ha
Method in brief: as §2

ALOMY [21] = experiment: Post-emergence herbicidal action against ALOMY; format: in vivo, Alopecurus myosuroides; details: dosage 20 g/ha, visual assessment about 3 weeks after treatment vs untreated controls
Method in brief: as §1

STEME [22] = experiment: Pre-emergence herbicidal action against STEME; format: in vivo, Stellaria media
Method in brief: as §2

PHBPU [23] = experiment: Post-emergence herbicidal action against PHBPU; format: in vivo, Pharbitis purpurea
Method in brief: as §1

SETVI [24] = experiment: Post-emergence herbicidal action against SETVI; format: in vivo, Setaria viridis
Method in brief: as §1

AVEFA [25] = experiment: Post-emergence herbicidal action against AVEFA; format: in vivo, Avena fatua; details: 20 g/ha, visual assessment about 3 weeks after treatment, 100% = plants have died, 0% = like control plants
Method in brief: as §1

DIGSA [26] = experiment: Post-emergence herbicidal action against DIGSA; format: in vivo, Digitaria sanguinalis
Method in brief: as §1

[27] = 20 g/ha, scored visually after 3 weeks vs untreated controls, 100% = plants have died, 0% = like control plants
[28] = 80 g/ha, scored visually after 3 weeks vs untreated controls (100% = plants have died, 0% = like control plants)

CCn1nnnc1NC(=O)c1ccc(C(F)F)c(C(=O)NC2CC2)c1C [Example 2-46]
90%: Pre-emergence action against HORMU in % (HORMU [3]) | Pre-emergence action against ECHCG in % (ECHCG [5]; 80 g/ha) | Pre-emergence action against LOLRI in % (LOLRI) | Pre-emergence action against PHBPU in % (PHBPU [9]) | Pre-emergence action against POLCO in % (POLCO) | Pre-emergence action against MATIN in % (MATIN [18]; dosage 20 g/ha) | Pre-emergence action against VERPE in % (VERPE [20]) | Pre-emergence action against STEME in % (STEME [22]; dosage 20 g/ha)
80%: Post-emergence action against HORMU in % (HORMU [1]) | Post-emergence action against STEME in % (STEME [2]; 20 g/ha) | Post-emergence action against STEME in % (STEME [2]; dosage 5 g/ha) | Post-emergence action against ECHCG in % (ECHCG [6]; dosage 20 g/ha) | Post-emergence action against VERPE in % (VERPE [7]; 5 g/ha) | Post-emergence action against VERPE in % (VERPE [7]; 20 g/ha) | Post-emergence action against ABUTH in % (ABUTH [10]; dosage 5 g/ha) | Post-emergence action against ABUTH in % (ABUTH [10]; dosage 20 g/ha) | Post-emergence action against VIOTR in % (VIOTR [12]; 5 g/ha) | Post-emergence action against VIOTR in % (VIOTR [12]; 20 g/ha) | Post-emergence action against MATIN in % (MATIN [19]; dosage 20 g/ha) | Post-emergence action against ALOMY in % (ALOMY [21]) | Post-emergence action against PHBPU in % (PHBPU [23]; dosage 20 g/ha)
100%: Pre-emergence action against DIGSA in % (DIGSA [4]; dosage 20 g/ha) | Pre-emergence action against DIGSA in % (DIGSA [4]; dosage 80 g/ha) | Pre-emergence action against AVEFA in % (AVEFA [8]) | Pre-emergence action against AMARE in % (AMARE [11]; [27]) | Pre-emergence action against AMARE in % (AMARE [11]; [28]) | Pre-emergence action against ABUTH (herbicidal activity) (ABUTH [13]) | Pre-emergence action against ABUTH (herbicidal activity in percent) (ABUTH [13]) | Pre-emergence action against SETVI in % (SETVI [14]) | Pre-emergence action against ALOMY (herbicidal activity) (ALOMY [15]) | Post-emergence action at 20 g/ha against AMARE in % (AMARE [16]) | Pre-emergence action against VIOTR in % (VIOTR [17]; dosage 20 g/ha) | Pre-emergence action against VIOTR in % (VIOTR [17]; dosage 80 g/ha) | Pre-emergence action against MATIN in % (MATIN [18]; dosage 80 g/ha) | Pre-emergence action against STEME in % (STEME [22]; dosage 80 g/ha)

CCn1nnnc1NC(=O)c1ccc(C(F)F)c(C(=O)NC)c1SC [Example 2-87]
80%: Post-emergence action against HORMU in % (HORMU [1]) | Post-emergence action against SETVI in % (SETVI [24]; dosage 5 g/ha) | Post-emergence action against SETVI in % (SETVI [24]; dosage 20 g/ha) | Post-emergence action against STEME in % (STEME [2]; dosage 5 g/ha) | Pre-emergence action against HORMU in % (HORMU [3]) | Pre-emergence action against ECHCG in % (ECHCG [5]; 20 g/ha) | Pre-emergence action against LOLRI in % (LOLRI) | Post-emergence action at 20 g/ha against AVEFA in % (AVEFA [25]) | Post-emergence action against ECHCG in % (ECHCG [6]; dosage 5 g/ha) | Post-emergence action against ECHCG in % (ECHCG [6]; dosage 20 g/ha) | Post-emergence action against VERPE in % (VERPE [7]; 20 g/ha) | Pre-emergence action against PHBPU in % (PHBPU [9]) | Pre-emergence action against ALOMY (herbicidal activity) (ALOMY [15]) | Post-emergence action against MATIN in % (MATIN [19]; dosage 5 g/ha) | Post-emergence action against ALOMY in % (ALOMY [21]) | Post-emergence action against PHBPU in % (PHBPU [23]; dosage 5 g/ha) | Post-emergence action against PHBPU in % (PHBPU [23]; dosage 20 g/ha)
90%: Post-emergence action against STEME in % (STEME [2]; 20 g/ha) | Pre-emergence action against AVEFA in % (AVEFA [8]) | Post-emergence action against ABUTH in % (ABUTH [10]; dosage 5 g/ha) | Post-emergence action against ABUTH in % (ABUTH [10]; dosage 20 g/ha) | Post-emergence action at 20 g/ha against AMARE in % (AMARE [16]) | Pre-emergence action against VIOTR in % (VIOTR [17]; dosage 20 g/ha) | Pre-emergence action against VIOTR in % (VIOTR [17]; dosage 80 g/ha) | Pre-emergence action against MATIN in % (MATIN [18]; dosage 20 g/ha) | Pre-emergence action against MATIN in % (MATIN [18]; dosage 80 g/ha) | Post-emergence action against MATIN in % (MATIN [19]; dosage 20 g/ha) | Pre-emergence action against VERPE in % (VERPE [20]) | Post-emergence action against DIGSA in % (DIGSA [26]; 5 g/ha) | Post-emergence action against DIGSA (DIGSA [26]; 20 g/ha)
100%: Pre-emergence action against DIGSA in % (DIGSA [4]; dosage 20 g/ha) | Pre-emergence action against DIGSA in % (DIGSA [4]; dosage 80 g/ha) | Pre-emergence action against ECHCG in % (ECHCG [5]; 80 g/ha) | Pre-emergence action against AMARE in % (AMARE [11]; [27]) | Pre-emergence action against AMARE in % (AMARE [11]; [28]) | Post-emergence action against VIOTR in % (VIOTR [12]; 20 g/ha) | Pre-emergence action against ABUTH (herbicidal activity) (ABUTH [13]) | Pre-emergence action against ABUTH (herbicidal activity in percent) (ABUTH [13]) | Pre-emergence action against SETVI in % (SETVI [14]) | Pre-emergence action against STEME in % (STEME [22]; dosage 20 g/ha) | Pre-emergence action against STEME in % (STEME [22]; dosage 80 g/ha)
